Measurements: ChEMBL document CHEMBL1201862, “PubChem BioAssay data set” (2004)
The source made the active and inactive calls.

Legend:
[1] = target: T1, Protein RecA (Mycobacterium tuberculosis, UniProt P9WHJ3); assay: Fluorescence Cell-Free Homogeneous Dose Retest to Identify Inhibitors of RecA-Intein Splicing Activity. [Related pubchem assays (depositor defined):AID2097, AID2223, AID489010, AID492950]; type: functional
T1 sequence (P9WHJ3 whole entry): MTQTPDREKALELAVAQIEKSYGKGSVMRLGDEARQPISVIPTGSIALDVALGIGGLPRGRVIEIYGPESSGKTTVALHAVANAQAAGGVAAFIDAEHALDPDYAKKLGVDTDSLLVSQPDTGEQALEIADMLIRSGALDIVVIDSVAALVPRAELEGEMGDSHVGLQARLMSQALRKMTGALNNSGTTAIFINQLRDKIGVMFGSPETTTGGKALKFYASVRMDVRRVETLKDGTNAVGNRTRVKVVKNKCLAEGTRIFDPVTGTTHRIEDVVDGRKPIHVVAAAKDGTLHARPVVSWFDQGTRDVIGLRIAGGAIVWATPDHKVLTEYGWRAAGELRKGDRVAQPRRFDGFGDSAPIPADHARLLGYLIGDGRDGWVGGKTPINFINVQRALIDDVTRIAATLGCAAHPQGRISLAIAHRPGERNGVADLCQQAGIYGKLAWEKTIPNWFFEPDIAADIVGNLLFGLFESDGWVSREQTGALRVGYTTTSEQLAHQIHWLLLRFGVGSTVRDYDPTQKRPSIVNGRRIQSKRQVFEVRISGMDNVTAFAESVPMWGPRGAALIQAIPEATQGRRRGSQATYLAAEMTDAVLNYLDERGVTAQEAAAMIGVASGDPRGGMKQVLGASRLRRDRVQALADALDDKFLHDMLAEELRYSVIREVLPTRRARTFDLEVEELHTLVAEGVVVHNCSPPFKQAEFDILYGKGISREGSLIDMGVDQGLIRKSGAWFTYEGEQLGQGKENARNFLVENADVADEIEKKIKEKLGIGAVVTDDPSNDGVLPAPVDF

[2] = target: T2, Replicative DNA helicase DnaB (Mycobacterium tuberculosis, UniProt P9WMR3); assay: DnaB intein splicing inhibitors, dose response, biochemical, cell-free fluorescence (AID 449749); type: functional
T2 sequence (P9WMR3 whole entry): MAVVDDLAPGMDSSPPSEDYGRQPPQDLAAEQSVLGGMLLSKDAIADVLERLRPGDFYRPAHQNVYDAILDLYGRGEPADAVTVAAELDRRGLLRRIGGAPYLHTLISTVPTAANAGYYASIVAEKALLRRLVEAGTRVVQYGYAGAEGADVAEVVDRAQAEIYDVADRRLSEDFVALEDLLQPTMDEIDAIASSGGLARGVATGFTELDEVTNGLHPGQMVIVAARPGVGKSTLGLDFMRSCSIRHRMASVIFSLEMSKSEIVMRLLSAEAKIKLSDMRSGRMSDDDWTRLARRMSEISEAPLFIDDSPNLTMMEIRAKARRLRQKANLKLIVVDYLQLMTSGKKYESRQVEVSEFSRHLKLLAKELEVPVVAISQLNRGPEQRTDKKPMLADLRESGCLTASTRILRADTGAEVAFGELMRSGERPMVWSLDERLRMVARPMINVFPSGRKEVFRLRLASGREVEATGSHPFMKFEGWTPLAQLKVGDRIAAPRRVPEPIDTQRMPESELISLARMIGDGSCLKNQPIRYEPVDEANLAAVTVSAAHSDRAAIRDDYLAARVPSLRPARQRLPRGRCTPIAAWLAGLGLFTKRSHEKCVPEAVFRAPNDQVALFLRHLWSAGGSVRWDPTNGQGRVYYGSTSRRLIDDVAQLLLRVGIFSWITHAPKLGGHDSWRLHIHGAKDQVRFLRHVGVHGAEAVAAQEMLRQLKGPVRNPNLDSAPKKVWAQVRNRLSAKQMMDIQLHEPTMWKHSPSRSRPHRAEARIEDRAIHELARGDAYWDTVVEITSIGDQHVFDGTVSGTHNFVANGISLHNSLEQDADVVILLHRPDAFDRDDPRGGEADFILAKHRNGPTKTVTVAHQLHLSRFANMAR

[3] = CAL PDZ domain peptide-binding inhibitors, dose response, biochemical, fluorescence polarization, untagged CAL PDZ, cherry-pick (AID 602267); type: functional
[4] = target: T3, Hexokinase HKDC1 (Homo sapiens, UniProt Q2TB90); assay: HKDC1 hexokinase inhibitors, dose response, biochemical, W721R variant (AID 504729); type: functional
T3 sequence (Q2TB90 whole entry): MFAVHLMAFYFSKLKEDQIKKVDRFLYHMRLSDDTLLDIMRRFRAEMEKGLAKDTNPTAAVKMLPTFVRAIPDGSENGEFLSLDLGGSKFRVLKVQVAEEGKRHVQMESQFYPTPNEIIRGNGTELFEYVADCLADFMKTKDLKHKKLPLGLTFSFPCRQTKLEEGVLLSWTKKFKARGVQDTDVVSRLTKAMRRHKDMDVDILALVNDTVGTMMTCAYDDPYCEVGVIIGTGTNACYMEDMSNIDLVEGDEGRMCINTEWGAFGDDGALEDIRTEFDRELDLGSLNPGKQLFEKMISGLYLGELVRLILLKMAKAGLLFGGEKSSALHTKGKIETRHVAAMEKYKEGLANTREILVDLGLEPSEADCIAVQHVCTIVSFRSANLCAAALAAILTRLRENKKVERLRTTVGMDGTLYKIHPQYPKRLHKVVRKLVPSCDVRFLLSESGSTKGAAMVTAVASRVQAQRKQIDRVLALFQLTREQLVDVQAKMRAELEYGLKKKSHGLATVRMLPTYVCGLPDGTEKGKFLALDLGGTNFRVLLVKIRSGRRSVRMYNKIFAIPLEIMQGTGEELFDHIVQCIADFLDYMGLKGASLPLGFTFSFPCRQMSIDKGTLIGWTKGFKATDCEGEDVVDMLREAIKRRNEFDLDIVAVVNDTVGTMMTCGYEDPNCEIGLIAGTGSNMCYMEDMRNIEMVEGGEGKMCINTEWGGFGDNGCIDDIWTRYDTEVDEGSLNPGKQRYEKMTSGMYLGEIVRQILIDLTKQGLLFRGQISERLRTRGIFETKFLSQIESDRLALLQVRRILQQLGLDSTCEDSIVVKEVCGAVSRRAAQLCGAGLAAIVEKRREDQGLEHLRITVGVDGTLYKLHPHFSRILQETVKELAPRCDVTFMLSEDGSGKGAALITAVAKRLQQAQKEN

[5] = target: Cystic fibrosis transmembrane conductance regulator/Golgi-associated PDZ and coiled-coil motif-containing protein (Homo sapiens, UniProt P13569+Q9HD26); assay: CAL PDZ peptide-binding inhibitors, dose response, biochemical, fluorescence polarization, Cerulean-tagged CAL PDZ, cherry-picks (AID 504773)
Chain of Cystic fibrosis transmembrane conductance regulator/Golgi-associated PDZ and coiled-coil motif-containing protein (P13569 whole entry, other chains not shown): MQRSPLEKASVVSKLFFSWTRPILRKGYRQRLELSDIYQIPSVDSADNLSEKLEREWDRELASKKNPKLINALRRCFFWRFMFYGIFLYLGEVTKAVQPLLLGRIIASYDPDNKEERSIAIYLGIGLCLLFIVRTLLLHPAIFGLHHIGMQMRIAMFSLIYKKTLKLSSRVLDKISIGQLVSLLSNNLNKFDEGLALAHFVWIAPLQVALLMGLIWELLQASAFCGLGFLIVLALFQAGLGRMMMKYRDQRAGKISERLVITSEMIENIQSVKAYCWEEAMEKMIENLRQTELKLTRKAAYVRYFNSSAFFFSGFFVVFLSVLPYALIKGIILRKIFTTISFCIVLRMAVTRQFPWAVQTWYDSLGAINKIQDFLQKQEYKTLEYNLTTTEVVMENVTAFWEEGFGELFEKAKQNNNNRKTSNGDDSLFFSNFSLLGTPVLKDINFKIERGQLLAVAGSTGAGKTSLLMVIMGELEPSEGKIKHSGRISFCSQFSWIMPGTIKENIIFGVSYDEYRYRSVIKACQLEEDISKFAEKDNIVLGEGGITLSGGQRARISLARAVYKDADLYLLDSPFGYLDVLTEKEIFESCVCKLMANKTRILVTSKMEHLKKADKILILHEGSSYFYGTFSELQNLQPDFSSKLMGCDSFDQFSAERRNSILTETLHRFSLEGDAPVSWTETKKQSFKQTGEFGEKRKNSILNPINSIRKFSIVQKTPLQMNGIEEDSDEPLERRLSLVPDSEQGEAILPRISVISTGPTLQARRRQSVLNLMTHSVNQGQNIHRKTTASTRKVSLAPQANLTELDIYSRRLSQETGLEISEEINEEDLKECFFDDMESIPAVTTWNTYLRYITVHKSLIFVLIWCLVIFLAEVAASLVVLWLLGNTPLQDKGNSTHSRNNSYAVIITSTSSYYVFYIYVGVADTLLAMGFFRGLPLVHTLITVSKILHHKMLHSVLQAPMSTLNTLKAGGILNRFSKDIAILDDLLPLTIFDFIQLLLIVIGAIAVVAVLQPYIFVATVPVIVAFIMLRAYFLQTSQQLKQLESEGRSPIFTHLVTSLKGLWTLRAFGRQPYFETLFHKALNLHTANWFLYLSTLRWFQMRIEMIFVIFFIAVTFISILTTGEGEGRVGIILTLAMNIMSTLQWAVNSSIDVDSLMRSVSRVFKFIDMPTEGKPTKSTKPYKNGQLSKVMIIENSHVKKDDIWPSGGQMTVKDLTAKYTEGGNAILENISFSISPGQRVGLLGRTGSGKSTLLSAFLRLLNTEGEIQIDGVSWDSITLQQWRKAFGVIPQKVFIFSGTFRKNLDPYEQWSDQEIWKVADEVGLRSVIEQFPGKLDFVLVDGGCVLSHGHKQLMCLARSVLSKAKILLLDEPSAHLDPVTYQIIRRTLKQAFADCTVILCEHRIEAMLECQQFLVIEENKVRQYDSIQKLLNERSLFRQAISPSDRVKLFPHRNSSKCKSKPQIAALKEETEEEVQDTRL

[6] = target: Eukaryotic translation initiation factor 4E (Mus musculus, UniProt P63073); assay: eIF4E–eIF4G protein interaction inhibitors, dose response, biochemical, TR-FRET (AID 855); type: functional;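 note: potency for disrupting eIF4E binding to eIF4GI seen as loss of FRET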
Chain of Eukaryotic translation initiation factor 4E (P63073 whole entry): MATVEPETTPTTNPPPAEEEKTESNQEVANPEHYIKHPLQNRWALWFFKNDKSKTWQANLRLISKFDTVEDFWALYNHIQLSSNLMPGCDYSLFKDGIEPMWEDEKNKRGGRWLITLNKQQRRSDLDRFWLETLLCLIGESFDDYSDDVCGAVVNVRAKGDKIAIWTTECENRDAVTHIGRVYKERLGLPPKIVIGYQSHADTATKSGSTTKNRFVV

O=c1c2ccccc2nc2n1CCC2 [DEOXYVASICINONE]
active: EC50 [1] 11.6 µM | AC50 [2] 13.3 µM | AC50 [3] 60.4 µM | IC50 [4] 4.32 µM | AC50 [5] 21.3 µM | IC50 [6] 6.2 µM
